Patent US20080255084A1, “Combination of Organic Compounds” (priority 2005, published 2008)

How the values were obtained:
[1] = in vivo; cited from earlier work
rat renin = target: T1, rat renin (Rattus norvegicus, UniProt P08424); experiment: renin inhibitory potency against rat renin; type: biochemical; details: loss of potency against rat renin
T1 sequence (P08424 65-402): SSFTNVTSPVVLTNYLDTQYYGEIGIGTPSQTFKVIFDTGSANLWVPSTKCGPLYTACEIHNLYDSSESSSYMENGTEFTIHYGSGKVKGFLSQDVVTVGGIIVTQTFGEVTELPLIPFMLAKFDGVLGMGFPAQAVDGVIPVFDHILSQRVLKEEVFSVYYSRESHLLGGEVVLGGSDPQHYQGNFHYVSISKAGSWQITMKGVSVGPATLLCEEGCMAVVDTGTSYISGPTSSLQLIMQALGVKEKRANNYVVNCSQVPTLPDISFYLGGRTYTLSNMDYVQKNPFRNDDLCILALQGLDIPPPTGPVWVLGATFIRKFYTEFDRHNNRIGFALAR

dog renin = target: T2, dog renin (Canis lupus familiaris, UniProt Q6DYE7); experiment: renin inhibitory potency against dog renin; type: biochemical; details: compared with human renin
T2 sequence (Q6DYE7 66-403): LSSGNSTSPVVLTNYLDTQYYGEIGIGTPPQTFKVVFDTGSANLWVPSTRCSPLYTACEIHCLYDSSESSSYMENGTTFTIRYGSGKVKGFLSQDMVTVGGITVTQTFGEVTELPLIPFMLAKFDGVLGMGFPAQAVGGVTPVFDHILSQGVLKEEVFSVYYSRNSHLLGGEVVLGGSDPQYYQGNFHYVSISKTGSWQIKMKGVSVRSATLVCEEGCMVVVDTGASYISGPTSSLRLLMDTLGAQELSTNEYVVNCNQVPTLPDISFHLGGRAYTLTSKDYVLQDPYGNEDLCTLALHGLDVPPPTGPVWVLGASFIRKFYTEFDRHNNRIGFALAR

mouse renin = experiment: renin inhibitory potency against mouse renin; type: biochemical; details: compared with human renin

SMILES | effect on weight loss [1] | weaker as a rat renin inhibitor (rat renin) | potency against dog renin (dog renin) | potency against mouse renin (mouse renin)
CC1(C)O[C@@H]2[C@@H](CO[C@@]3(COS(N)(=O)=O)OC(C)(C)O[C@@H]23)O1 [Topiramate] | increase weight loss | – | – | –
NS(=O)(=O)Cc1noc2ccccc12 [Zonisamide] | lead to weight loss | – | – | –
COCCCOc1cc(C[C@@H](C[C@H](N)[C@@H](O)C[C@H](C(=O)NCC(C)(C)C(N)=O)C(C)C)C(C)C)ccc1OC [aliskiren, 2(S),4 (S),5(S),7(S)—N-(3-amino-2,2-dimethyl-3-oxopropyl)-2,7-di(1-methylethyl)-4-hydroxy-5-amino-8-[4-methoxy-3-(3-methoxy-propoxy)phenyl]-octanamide] | – | 1-2 orders of magnitude | reasonable potency | reasonable potency
